From patent US11267826B2, “Penicillin-binding protein inhibitors” (priority 2017, dated 2022)
Read-outs that look alike come from different tables or passages of the source.

Key:
[1] = test system: hyper-permeable E. coli 901C; test: Broth microdilution MIC assay, hyper-permeable E. coli; type: cell-based; conditions: Escherichia coli, read-out: E. coli 901C MIC
Protocol: (§1) To determine the ability of test compounds to potentiate the inhibition of the growth of bacterial strains, classic cell based broth microdilution MIC assays were employed. MIC assays are performed according to CLSI methods except where otherwise noted (CLSI, 2011 and CLSI, 2009). The reference strain S. aureus ATCC 29213 and the hyper-permeable E. coli 901C were used to determine the ability of the PBP compounds to inhibit bacterial growth. Briefly, cryo-preserved bacterial cultures of clinical strains are streaked for isolation on appropriate agar medium, in this case Mueller Hinton II agar. Following incubation to allow formation of colonies these plates are sealed with parafilm and stored refrigerated for up to two weeks. For preparation of assay inocula and to ensure low variability, at least 5 colonies are picked from the agar plates with an inoculating loop and aseptically transferred to a culture tube containing 3 mL of Mueller-Hinton Broth (supplemented with divalent cations to required levels based on Manufacturers' certification). The broth culture is grown for 3-5 hours at 37° C. with shaking at 200 rpm. Meanwhile, 2-fold serial dilutions of test compounds are conducted in a 96 well plate with a final volume of 75 μL per well at 2-fold the final desired concentration. After the dilution plates are set up the growing cultures are then diluted in a cuvette containing MH II broth and the optical density is measured at 600 nm. Inocula are diluted such that 75 μL of this culture in Mueller-Hinton Broth results in a starting bacterial concentration of 5×10^5 CFU/mL when added to the dilution plates. The plates are incubated 16-20 hours at 37° C. The MIC is read visually as the lowest concentration well with no bacterial growth.

S. aureus ATCC 29213 = test: Broth microdilution MIC assay, S. aureus; type: cell-based; conditions: Staphylococcus aureus
Protocol: as §1

[2] = ATCC29213, broth microdilution, 16-20 hours at 37° C., read-out: S. aureus 29213 MIC

Row | Compound | MIC [1] | MIC (S. aureus ATCC 29213; [2]) | MIC (S. aureus ATCC 29213; ATCC29213, read-out: S. aureus 29213 MIC)
1 | O=C(N[C@H]1Cc2cccc(C(=O)O)c2OB1O)/C(=N\O)c1cscn1 [Example 90, (R,Z)-2-hydroxy-3-(2-(hydroxyimino)-2-(thiazol-4-yl)acetamido)-3,4-dihydro-2H-benzo[e][1,2]oxaborinine-8-carboxylic Acid] | 64 to 128 µg/mL | < 64 µg/mL | –
2 | O=C(N[C@H]1Cc2cccc(C(=O)O)c2OB1O)/C(=N\O)c1csc(S)n1 [Example 91, (R,Z)-2-hydroxy-3-(2-(hydroxyimino)-2-(2-mercaptothiazol-4-yl)acetamido)-3,4-dihydro-2H-benzo[e][1,2]oxaborinine-8-carboxylic Acid] | > 128 µg/mL | < 64 µg/mL | –
3 | COc1ccc(CSc2nc(/C(=N/O)C(=O)N[C@H]3Cc4cccc(C(=O)O)c4OB3O)cs2)cc1 [Example 92, (R,Z)-2-hydroxy-3-(2-(hydroxyimino)-2-(2-((4-methoxybenzyl)thio)thiazol-4-yl)acetamido)-3,4-dihydro-2H-benzo[e][1,2]oxaborinine-8-carboxylic Acid] | > 128 µg/mL | < 64 µg/mL | –
4 | O=C(N[C@H]1Cc2cccc(C(=O)O)c2OB1O)C(=NO)c1csc(-n2ccnc2)n1 [Example 93, (R)-3-(2-(2-(1H-imidazol-1-yl)thiazol-4-yl)-2-(hydroxyimino)acetamido)-2-hydroxy-3,4-dihydro-2H-benzo[e][1,2]oxaborinine-8-carboxylic Acid] | > 128 µg/mL | < 64 µg/mL | –
5 | NCCN(CCN)c1nc(/C(=N/O)C(=O)N[C@H]2Cc3cccc(C(=O)O)c3OB2O)cs1 [Example 94, (R,Z)-3-(2-(2-(bis(2-aminoethyl)amino)thiazol-4-yl)-2-(hydroxyimino)acetamido)-2-hydroxy-3,4-dihydro-2H-benzo[e][1,2]oxaborinine-8-carboxylic Acid] | > 128 µg/mL | < 64 µg/mL | –
6 | CC(C)O/N=C(\C(=O)N[C@H]1Cc2cccc(C(=O)O)c2OB1O)c1csc(N)n1 [Example 97, (R,Z)-3-(2-(2-aminothiazol-4-yl)-2-(isopropoxyimino)acetamido)-2-hydroxy-3,4-dihydro-2H-benzo[e][1,2]oxaborinine-8-carboxylic Acid] | > 128 µg/mL | 64 to 128 µg/mL | –
7 | CCCO/N=C(\C(=O)N[C@H]1Cc2cccc(C(=O)O)c2OB1O)c1csc(N)n1 [Example 98, (R,Z)-3-(2-(2-aminothiazol-4-yl)-2-(propoxyimino)acetamido)-2-hydroxy-3,4-dihydro-2H-benzo[e][1,2]oxaborinine-8-carboxylic Acid] | < 64 µg/mL | < 64 µg/mL | –
8 | CC(C)CO/N=C(\C(=O)N[C@H]1Cc2cccc(C(=O)O)c2OB1O)c1csc(N)n1 [Example 100, (R,Z)-3-(2-(2-aminothiazol-4-yl)-2-(isobutoxyimino)acetamido)-2-hydroxy-3,4-dihydro-2H-benzo[e][1,2]oxaborinine-8-carboxylic Acid] | < 64 µg/mL | < 64 µg/mL | –
9 | O=C(N[C@H]1Cc2cccc(C(=O)O)c2OB1O)/C(=N\O)c1csc(NCCF)n1 [Example 101, (R,Z)-3-(2-(2-((2-fluoroethyl)amino)thiazol-4-yl)-2-(hydroxyimino)acetamido)-2-hydroxy-3,4-dihydro-2H-benzo[e][1,2]oxaborinine-8-carboxylic Acid] | 64 to 128 µg/mL | > 128 µg/mL | –
10 | O=C(N[C@H]1Cc2cccc(C(=O)O)c2OB1O)/C(=N\O)c1csc(NCCO)n1 [Example 102, (R,Z)-2-hydroxy-3-(2-(2-((2-hydroxyethyl)amino)thiazol-4-yl)-2-(hydroxyimino)acetamido)-3,4-dihydro-2H-benzo[e][1,2]oxaborinine-8-carboxylic Acid] | > 128 µg/mL | > 128 µg/mL | –
11 | O=C(N[C@H]1Cc2cccc(C(=O)O)c2OB1O)/C(=N/O)c1nnn[nH]1 [Example 103, (R,E)-2-hydroxy-3-(2-(hydroxyimino)-2-(1H-tetrazol-5-yl)acetamido)-3,4-dihydro-2H-benzo[e][1,2]oxaborinine-8-carboxylic Acid] | > 128 µg/mL | > 128 µg/mL | –
12 | CC(O/N=C(\C(=O)N[C@H]1Cc2cccc(C(=O)O)c2OB1O)c1csc(N)n1)C(=O)NCCNCCN (stereo partly drawn) [Example 104, (3R)-3-((Z)-12-amino-2-(2-aminothiazol-4-yl)-5-methyl-6-oxo-4-oxa-3,7,10-triazadodec-2-enamido)-2-hydroxy-3,4-dihydro-2H-benzo[e][1,2]oxaborinine-8-carboxylic Acid] | < 64 µg/mL | – | > 128 µg/mL
13 | NCCO/N=C(\C(=O)N[C@H]1Cc2cccc(C(=O)O)c2OB1O)c1csc(N)n1 [Example 105, (R,Z)-3-(2-((2-aminoethoxy)imino)-2-(2-aminothiazol-4-yl)acetamido)-2-hydroxy-3,4-dihydro-2H-benzo[e][1,2]oxaborinine-8-carboxylic Acid] | < 64 µg/mL | > 128 µg/mL | –
14 | CNc1nc(/C(=N/O)C(=O)N[C@H]2Cc3cccc(C(=O)O)c3OB2O)cs1 [Example 106, (R,Z)-2-hydroxy-3-(2-(hydroxyimino)-2-(2-(methylamino)thiazol-4-yl)acetamido)-3,4-dihydro-2H-benzo[e][1,2]oxaborinine-8-carboxylic Acid] | > 128 µg/mL | > 128 µg/mL | –
15 | CCNc1nc(/C(=N/O)C(=O)N[C@H]2Cc3cccc(C(=O)O)c3OB2O)cs1 [Example 107, (R,Z)-3-(2-(2-(ethylamino)thiazol-4-yl)-2-(hydroxyimino)acetamido)-2-hydroxy-3,4-dihydro-2H-benzo[e][1,2]oxaborinine-8-carboxylic Acid] | > 128 µg/mL | > 128 µg/mL | –
16 | O=C(O)CNc1nc(/C(=N/O)C(=O)N[C@H]2Cc3cccc(C(=O)O)c3OB2O)cs1 [Example 108, (R,Z)-3-(2-(2-((carboxymethyl)amino)thiazol-4-yl)-2-(hydroxyimino)acetamido)-2-hydroxy-3,4-dihydro-2H-benzo[e][1,2]oxaborinine-8-carboxylic Acid] | > 128 µg/mL | > 128 µg/mL | –
17 | NC(=O)CNc1nc(/C(=N/O)C(=O)N[C@H]2Cc3cccc(C(=O)O)c3OB2O)cs1 [Example 109, (R,Z)-3-(2-(2-((2-amino-2-oxoethyl)amino)thiazol-4-yl)-2-(hydroxyimino)acetamido)-2-hydroxy-3,4-dihydro-2H-benzo[e][1,2]oxaborinine-8-carboxylic Acid] | > 128 µg/mL | > 128 µg/mL | –
18 | NCCON=C(C(=O)N[C@H]1Cc2cccc(C(=O)O)c2OB1O)c1nnn[nH]1 [Example 110, (R)-3-(2-((2-aminoethoxy)imino)-2-(1H-tetrazol-5-yl)acetamido)-2-hydroxy-3,4-dihydro-2H-benzo[e][1,2]oxaborinine-8-carboxylic Acid] | > 128 µg/mL | > 128 µg/mL | –
19 | NCCn1nnc(C(=NO)C(=O)N[C@H]2Cc3cccc(C(=O)O)c3OB2O)n1 [Example 111, (R)-3-(2-(2-(2-aminoethyl)-2H-tetrazol-5-yl)-2-(hydroxyimino)acetamido)-2-hydroxy-3,4-dihydro-2H-benzo[e][1,2]oxaborinine-8-carboxylic Acid] | > 128 µg/mL | > 128 µg/mL | –
20 | O=C(O)CO/N=C(/Cn1cncn1)C(=O)N[C@H]1Cc2cccc(C(=O)O)c2OB1O [Example 112, (R,Z)-3-(2-((carboxymethoxy)imino)-3-(1H-1,2,4-triazol-1-yl)propanamido)-2-hydroxy-3,4-dihydro-2H-benzo[e][1,2]oxaborinine-8-carboxylic Acid] | > 128 µg/mL | > 128 µg/mL | –
21 | Nc1nc(/C(=N/OCC(F)F)C(=O)N[C@H]2Cc3cccc(C(=O)O)c3OB2O)cs1 [Example 114, (R,Z)-3-(2-(2-aminothiazol-4-yl)-2-((2,2-difluoroethoxy)imino)acetamido)-2-hydroxy-3,4-dihydro-2H-benzo[e][1,2]oxaborinine-8-carboxylic Acid] | < 64 µg/mL | 64 to 128 µg/mL | –
22 | Nc1nc(/C(=N/OCCCCl)C(=O)N[C@H]2Cc3cccc(C(=O)O)c3OB2O)cs1 [Example 115, (R,Z)-3-(2-(2-aminothiazol-4-yl)-2-((3-chloropropoxy)imino)acetamido)-2-hydroxy-3,4-dihydro-2H-benzo[e][1,2]oxaborinine-8-carboxylic Acid] | < 64 µg/mL | > 128 µg/mL | –
23 | Nc1nc(/C(=N/OCCCBr)C(=O)N[C@H]2Cc3cccc(C(=O)O)c3OB2O)cs1 [Example 116, (R,Z)-3-(2-(2-aminothiazol-4-yl)-2-((3-bromopropoxy)imino)acetamido)-2-hydroxy-3,4-dihydro-2H-benzo[e][1,2]oxaborinine-8-carboxylic Acid] | > 128 µg/mL | > 128 µg/mL | –
24 | Nc1nc(/C(=N/OCC(F)(F)F)C(=O)N[C@H]2Cc3cccc(C(=O)O)c3OB2O)cs1 [Example 117, (R,Z)-3-(2-(2-aminothiazol-4-yl)-2-((2,2,2-trifluoroethoxy)imino)acetamido)-2-hydroxy-3,4-dihydro-2H-benzo[e][1,2]oxaborinine-8-carboxylic Acid] | < 64 µg/mL | 64 to 128 µg/mL | –
